Target: T1, ATP-binding cassette transporter A1 (ABCA1) (Homo sapiens, UniProt O95477)
T1 construct: full-length ABCA1 (pIRES2-EGFP-ABCA1) in CHO cells; with apoA-I
Test: cell-based ELISA-like apoA-I binding to ABCA1-transfected CHO cells, with vector-only control; western blot

T1 sequence (O95477 whole entry): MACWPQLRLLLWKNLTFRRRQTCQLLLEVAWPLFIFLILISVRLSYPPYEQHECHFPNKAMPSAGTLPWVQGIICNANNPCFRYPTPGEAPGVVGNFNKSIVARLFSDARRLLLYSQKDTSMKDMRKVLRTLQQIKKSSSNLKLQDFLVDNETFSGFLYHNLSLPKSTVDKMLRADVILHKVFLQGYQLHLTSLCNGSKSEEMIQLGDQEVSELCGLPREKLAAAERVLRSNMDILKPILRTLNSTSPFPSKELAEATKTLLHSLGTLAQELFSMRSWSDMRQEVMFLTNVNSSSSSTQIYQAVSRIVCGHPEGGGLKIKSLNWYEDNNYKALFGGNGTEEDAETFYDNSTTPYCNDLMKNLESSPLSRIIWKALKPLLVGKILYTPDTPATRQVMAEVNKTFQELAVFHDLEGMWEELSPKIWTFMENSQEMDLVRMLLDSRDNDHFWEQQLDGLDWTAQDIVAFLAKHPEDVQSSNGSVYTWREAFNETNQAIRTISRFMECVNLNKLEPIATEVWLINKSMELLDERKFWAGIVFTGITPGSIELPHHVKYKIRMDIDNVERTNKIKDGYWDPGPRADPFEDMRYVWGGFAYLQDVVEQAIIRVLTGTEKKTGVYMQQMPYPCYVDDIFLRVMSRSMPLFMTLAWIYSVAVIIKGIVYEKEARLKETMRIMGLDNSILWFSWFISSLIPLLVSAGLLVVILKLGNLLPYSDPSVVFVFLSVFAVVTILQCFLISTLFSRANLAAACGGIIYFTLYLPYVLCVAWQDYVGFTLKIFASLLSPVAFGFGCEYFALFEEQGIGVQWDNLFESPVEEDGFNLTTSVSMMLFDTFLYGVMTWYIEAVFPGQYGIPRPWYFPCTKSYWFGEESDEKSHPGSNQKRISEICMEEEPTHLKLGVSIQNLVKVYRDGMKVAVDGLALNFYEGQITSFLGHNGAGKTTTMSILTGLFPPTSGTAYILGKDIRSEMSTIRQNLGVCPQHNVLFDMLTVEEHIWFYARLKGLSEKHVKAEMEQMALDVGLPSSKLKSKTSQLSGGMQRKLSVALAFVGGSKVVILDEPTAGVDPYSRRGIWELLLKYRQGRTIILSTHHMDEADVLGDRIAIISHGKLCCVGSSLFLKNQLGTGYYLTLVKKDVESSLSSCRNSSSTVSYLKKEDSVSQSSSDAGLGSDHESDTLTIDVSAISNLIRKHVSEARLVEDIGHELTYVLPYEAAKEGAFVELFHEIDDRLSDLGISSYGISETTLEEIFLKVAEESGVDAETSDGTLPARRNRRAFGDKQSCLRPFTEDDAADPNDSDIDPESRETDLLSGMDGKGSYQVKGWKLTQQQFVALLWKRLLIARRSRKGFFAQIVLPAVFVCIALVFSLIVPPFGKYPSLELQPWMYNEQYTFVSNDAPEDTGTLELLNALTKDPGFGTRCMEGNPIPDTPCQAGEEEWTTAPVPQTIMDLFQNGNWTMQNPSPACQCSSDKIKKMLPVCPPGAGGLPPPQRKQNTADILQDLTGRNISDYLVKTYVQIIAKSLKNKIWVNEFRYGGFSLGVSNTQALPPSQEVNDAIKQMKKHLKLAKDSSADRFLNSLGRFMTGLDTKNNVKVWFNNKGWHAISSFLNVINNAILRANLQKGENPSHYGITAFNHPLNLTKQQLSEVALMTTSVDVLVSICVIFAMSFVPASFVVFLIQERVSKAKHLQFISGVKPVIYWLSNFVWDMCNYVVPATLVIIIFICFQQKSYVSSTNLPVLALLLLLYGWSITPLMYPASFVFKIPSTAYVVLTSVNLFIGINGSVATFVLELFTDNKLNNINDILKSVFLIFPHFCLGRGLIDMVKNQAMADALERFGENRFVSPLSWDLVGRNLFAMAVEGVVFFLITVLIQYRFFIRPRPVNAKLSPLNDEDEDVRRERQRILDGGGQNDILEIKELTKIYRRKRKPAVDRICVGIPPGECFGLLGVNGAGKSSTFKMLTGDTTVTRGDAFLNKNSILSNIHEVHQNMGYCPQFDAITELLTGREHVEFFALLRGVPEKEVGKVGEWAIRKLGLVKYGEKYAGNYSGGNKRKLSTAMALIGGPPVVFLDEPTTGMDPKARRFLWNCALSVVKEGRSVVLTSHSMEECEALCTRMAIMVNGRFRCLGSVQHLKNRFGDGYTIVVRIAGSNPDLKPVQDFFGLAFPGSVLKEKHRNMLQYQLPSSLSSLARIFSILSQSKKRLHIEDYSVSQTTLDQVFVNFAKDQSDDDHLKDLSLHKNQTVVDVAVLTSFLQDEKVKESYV
T1 sequence (P02647 25-267 partner): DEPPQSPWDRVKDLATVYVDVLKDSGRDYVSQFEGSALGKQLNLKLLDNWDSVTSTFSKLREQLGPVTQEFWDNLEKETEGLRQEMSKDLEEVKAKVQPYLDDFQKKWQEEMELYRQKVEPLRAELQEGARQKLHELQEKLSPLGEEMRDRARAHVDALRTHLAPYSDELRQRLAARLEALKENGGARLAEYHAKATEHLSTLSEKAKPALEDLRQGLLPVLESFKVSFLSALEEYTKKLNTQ

With `COc1ccc(Cl)cc1C(=O)NCCc1ccc(S(=O)(=O)NC(=O)NC2CCCCC2)cc1` [glibenclamide] the “cell-based ELISA-like apoA-I binding to ABCA1-transfected CHO cells, with vector” value was “an inhibition by glibenclamide was observed on transfected cells expressing ABCA1”.

From publication PMC6268880, “IMB2026791, a Xanthone, Stimulates Cholesterol Efflux by Increasing the Binding of Apolipoprotein A-I to ATP-Binding Cassette Transporter A1” (Molecules, 2012)
